Biological target: T1, BTK (Canis lupus familiaris, UniProt A0A8I3P3Z9)
T1 construct: PBMCs are isolated from the blood of dogs by Ficoll Paque procedure; from tissue; host or cells: CD21+ B cells purified from PBMCs of dog blood (dogs with spontaneous lymphoma, dosed orally)
Experiment: BTK target occupancy in canine peripheral CD21+ B cells after oral dosing
Assay type: in vivo, dog
Settings: day 7 prior to repeat dose, 1 day after preceding dose; 2.5 mg/kg once daily, peroral
Method: The following method may be used for the ELISA BTK target occupancy assay. Other variations of this assay are known to those of skill in the art and may also be used. • 1. Coat a 96-well plate (Optiplate, Perkin Elmer, catalog no. 6005290) with 125 ng/well anti-BTK (BD Biosciences catalog no. 611117) in 100 μL PBS, overnight at 4° C. • 2. Wash 2×200 μL/well PBS-Tween 0.05% (PBST). • 3. Block with 245 μL/well PBST+3% bovine serum albumin (BSA), for 2 to 3 hours at room temperature while shaking. • 4. During blocking, incubate samples with acalabrutinib and probe in Eppendorf tubes: • a. Centrifuge cells 5 minutes at 5000 rpm and 4° C. in Eppendorf centrifuge. • b. Remove supernatant, dilute BTK protein or resuspend cell pellet in cold (2-8° C.) lysis buffer (see below). For amount of cells/μL, see detailed protocols for Ramos (Example 6.2), canine B cells (Example 7.2) and human PBMCs (Example 8.2). • c. Incubate on ice for 30 minutes while shaking. Vortex every 10 minutes. • d. Centrifuge for 10 minutes at 14000 rpm and 4° C. in Eppendorf centrifuge. • e. Transfer supernatant to new tube. • f. […] Wash wells 2×245 μL/well PBST. • 6. Add (in duplicate) 100 μL of each sample (with and without Formula (3)) to the wells. • 7. Incubate for 2 hours at room temperature while shaking. • 8. Wash 4×PBST, 200 μL/well. • 9. […]

T1 sequence (A0A8I3P3Z9 1-664): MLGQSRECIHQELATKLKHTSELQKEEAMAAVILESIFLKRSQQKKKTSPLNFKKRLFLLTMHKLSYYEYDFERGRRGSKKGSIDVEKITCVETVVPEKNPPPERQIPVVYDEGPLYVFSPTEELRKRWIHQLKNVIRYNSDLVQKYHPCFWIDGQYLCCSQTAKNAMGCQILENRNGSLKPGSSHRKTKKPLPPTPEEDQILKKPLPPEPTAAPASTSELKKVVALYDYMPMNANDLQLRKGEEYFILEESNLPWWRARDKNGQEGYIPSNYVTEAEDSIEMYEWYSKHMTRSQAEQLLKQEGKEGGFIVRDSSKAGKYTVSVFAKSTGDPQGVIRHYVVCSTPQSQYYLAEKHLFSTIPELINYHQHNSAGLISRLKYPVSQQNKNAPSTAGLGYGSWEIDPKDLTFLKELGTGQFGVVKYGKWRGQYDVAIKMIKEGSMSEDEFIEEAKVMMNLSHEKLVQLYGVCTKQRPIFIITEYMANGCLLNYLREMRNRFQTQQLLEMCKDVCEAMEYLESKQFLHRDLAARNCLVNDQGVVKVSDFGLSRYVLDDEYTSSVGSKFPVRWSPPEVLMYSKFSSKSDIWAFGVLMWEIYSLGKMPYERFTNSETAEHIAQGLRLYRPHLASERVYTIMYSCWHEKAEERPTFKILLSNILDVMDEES

BTK still occupied, percentage of the predose sample: 83%
Compound: CC#CC(=O)N1CCC[C@H]1c1nc(-c2ccc(C(=O)Nc3ccccn3)cc2)c2c(N)nccn12 [acalabrutinib]
